Results: paper PMC7327145 (Biomolecules & Therapeutics, 2020)
“And” between values parts separate entries of the source, which are not always exact repeats. Identical values can stand only once. Like-named read-outs stand apart in the source and are kept apart here.

Tests used:
[1] = hepatic microsomes, SIDM vs control
[2] = ref Lawendy et al., 2009; Dowty et al., 2014; cited from earlier work
[3] = format: in vivo, rat; conditions: for AUC / clearance / MRT / half-life / Vd: plasma; for clearance: CL; for half-life: Terminal half-life; for Vd: VSS
[4] = Tissue distribution of tofacitinib 30 min after intravenous administration; format: in vivo, rat; conditions: 30 min after intravenous 10 mg/kg, control and SIDM rats
[5] = format: in vivo, rat; conditions: for CL renal: plasma and urine, CLR; for bioavailability: oral, F (bioavailability), oral 20 mg/kg vs intravenous 10 mg/kg
[6] = tested on: P-glycoprotein (P-gp); conditions: ref Hussa, 2014; cited from earlier work
[7] = intestinal microsomes
[8] = Rat plasma protein binding by equilibrium dialysis; format: in vitro ADME; conditions: fresh plasma, pH 7.4, Plasma protein binding, range over control and SIDM rats
[9] = intravenous 10 mg/kg, SIDM rats
[10] = intravenous 10 mg/kg, SIDM vs control
[11] = intravenous 10 mg/kg, control rats
[12] = rat, iv, 10 mg/kg, control rats

C[C@@H]1CCN(C(=O)CC#N)C[C@@H]1N(C)c1ncnc2[nH]ccc12 [tofacitinib, 3-[(3R,4R)-4-methyl-3-[methyl-(7H-pyrrolo[2,3-day]pyrimidin-4-yl)amino]piperidin-1-yl]-3-oxopropanenitrile]
CLint faster in SIDM rats than control rats [1]: 112%
Km smaller in SIDM rats than control rats [1]: 44.3%
Terminal half-life [2]: approximately 3.3 h
Ae0-24 h (dose excreted in urine for 24 h) [3, 9]: 6.64 ± 1.65 % of dose
CLNR [3, 9]: 55.5 ± 9.79 mL/min/kg
CLR estimated from the free (unbound to plasma proteins) fraction [3, 9]: 6.15 mL/min/kg
Contribution of CLR to CL [3, 9]: 7.97%
AUC smaller in SIDM rats than control rats [3, 10]: 33.6%
CL higher in SIDM rats than control rats [3, 10]: 51.1%
CLNR higher in SIDM rats than control rats [3, 10]: 43.8%
CLR higher in SIDM rats than control rats [3, 10]: 87.5%
Vss greater in SIDM rats than control rats [3, 10]: 262%
Ae0-24 h (dose excreted in urine for 24 h) [3, 11]: 6.99 ± 2.30 % of dose
CLNR [3, 11]: 38.6 ± 8.04 mL/min/kg
CLR estimated from the free (unbound to plasma proteins) fraction [3, 11]: 3.33 mL/min/kg
Contribution of CLR to CL [3, 11]: 6.42%
CL renal ([3]; rat, plasma and urine, iv, 10 mg/kg, CLR, control rats): 2.56 ± 0.59 mL/min/kg
AUC ([3]; rat, iv, 10 mg/kg, SIDM rats (n=7)): 2830 ng·h/mL
AUC ([3]; rat, iv, 10 mg/kg, control rats (n=9)): 4270 ng·h/mL
clearance ([3]; rat, iv, 10 mg/kg, SIDM rats): 60.3 ± 11.1 mL/min/kg
clearance [3, 12]: 39.9 ± 6.74 mL/min/kg
MRT ([3]; rat, iv, 10 mg/kg, SIDM rats): 44.3 min
MRT [3, 12]: 21.3 min
half-life ([3]; rat, iv, 10 mg/kg, SIDM rats): 26.5 ± 2.81 min
half-life [3, 12]: 30.2 ± 4.83 min
Vd ([3]; rat, iv, 10 mg/kg, SIDM rats): 3.56 ± 2.38 L/kg
Vd [3, 12]: 0.986 ± 0.379 L/kg
Tissue distribution [4]: widely distributed
Ae0-24 h (dose excreted in urine for 24 h) ([5]; oral 20 mg/kg, SIDM rats): 6.94 ± 2.42 % of dose
GI24 h (dose remaining in the gastrointestinal tract at 24 h) ([5]; oral 20 mg/kg, SIDM rats, 20 mg/kg): 0.238 % of dose and 0.238 ± 0.160 % of dose
AUC lower in SIDM rats than control rats ([5]; oral 20 mg/kg, SIDM vs control): 55.5%
CLR higher in SIDM rats than control rats ([5]; oral 20 mg/kg, SIDM vs control): 145%
Cmax lower in SIDM rats than control rats ([5]; oral 20 mg/kg, SIDM vs control): 61.1%
Decrease of F (bioavailability) in SIDM rats vs control rats ([5]; oral 20 mg/kg, SIDM vs control, 20 mg/kg): 33%
Ae0-24 h (dose excreted in urine for 24 h) ([5]; oral 20 mg/kg, control rats): 7.98 ± 1.34 % of dose
GI24 h (dose remaining in the gastrointestinal tract at 24 h) ([5]; oral 20 mg/kg, control rats, 20 mg/kg): 0.177 % of dose and 0.177 ± 0.123 % of dose
CL renal ([5]; rat, po, 20 mg/kg, oral 20 mg/kg, SIDM rats): 21.7 ± 14.9 mL/min/kg
CL renal ([5]; rat, po, 20 mg/kg, oral 20 mg/kg, control rats): 8.86 ± 13.5 mL/min/kg
bioavailability ([5]; rat, plasma, 20 mg/kg, SIDM rats): 23.8%
bioavailability ([5]; rat, plasma, 20 mg/kg, control rats): 35.5%
AUC ([5]; rat, plasma, po, 20 mg/kg, oral 20 mg/kg, SIDM rats (n=7)): 1350 ng·h/mL
AUC ([5]; rat, plasma, po, 20 mg/kg, oral 20 mg/kg, control rats (n=8)): 3030 ng·h/mL
Cmax ([5]; rat, plasma, po, 20 mg/kg, Cmax, oral 20 mg/kg, SIDM rats): 680 ± 360 ng/mL
Tmax ([5]; rat, plasma, po, 20 mg/kg, oral 20 mg/kg, SIDM rats): 25.7 min
Tmax ([5]; rat, plasma, po, 20 mg/kg, oral 20 mg/kg, control rats): 17.9 min
P-glycoprotein (P-gp) substrate status [6]: substrate of P-glycoprotein
Km, SIDM vs control rats [7]: comparable
CLint faster in SIDM rats than control rats ([7]; SIDM vs control): 35.4%
fraction unbound at 24 h, 10 µg/mL [8]: 0.769 to 0.781
